# According to ChEMBL document CHEMBL5728169, “Compounds and methods for inhibiting CYP26 enzymes” (2020):
# Assays:
# Cytochrome P450 26B1 = target: T1, Cytochrome P450 26B1 (Homo sapiens, UniProt Q9NR63); experiment: (§1) Cell-Based Inhibitor Assay: CYP26A1 or CYP26B1 stably transfected HeLa cells were maintained in Minimum Essential Medium (MEM) containing 10% fetal bovine serum (FBS) and 100 μg/mL hygromycin. Exponentially growing cells were harvested by incubation in trypsin. Cells were then collected and re-plated in 48-well culture plates at 5×10^5 cells in 0.2 mL of culture medium containing 0.05 μCi [3H]-RA in the presence or absence of increasing concentrations of a test compound. The test compounds were diluted in dimethyl sulfoxide (DMSO) and then added in duplicate to wells at 0.01, 0.1, 1, 10 and 100 μM final concentration. […] Cells were incubated for 3 hours at 37° C. Retinoids were then extracted using the procedure of Bligh, et al., (1959), Canadian Journal of Biochemistry 37, 911-917, which was modified by using dichloromethane instead of chloroform. Each sample's water soluble radioactivity level was quantified using a β-scintillation counter (using Ecolume scintillation fluid, available from MP Biomedicals of Solon, Ohio, USA).
# T1 sequence (Q9NR63 whole entry): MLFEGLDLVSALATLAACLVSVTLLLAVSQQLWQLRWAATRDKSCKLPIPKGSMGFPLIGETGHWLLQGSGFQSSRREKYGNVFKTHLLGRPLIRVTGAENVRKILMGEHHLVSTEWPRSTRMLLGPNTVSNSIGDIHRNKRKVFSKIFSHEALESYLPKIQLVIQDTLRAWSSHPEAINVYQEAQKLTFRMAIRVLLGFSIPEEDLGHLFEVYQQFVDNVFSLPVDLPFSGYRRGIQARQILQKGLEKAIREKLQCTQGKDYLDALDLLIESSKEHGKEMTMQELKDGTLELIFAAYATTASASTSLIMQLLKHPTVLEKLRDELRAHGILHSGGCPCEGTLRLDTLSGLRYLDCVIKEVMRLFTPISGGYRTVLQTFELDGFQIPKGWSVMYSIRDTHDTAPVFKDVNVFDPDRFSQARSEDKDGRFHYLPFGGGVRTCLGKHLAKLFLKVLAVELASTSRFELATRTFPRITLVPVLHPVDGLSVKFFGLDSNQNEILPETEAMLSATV
# Cytochrome P450 26A1 = target: T2, Cytochrome P450 26A1 (Homo sapiens, UniProt O43174); experiment: as §1
# T2 sequence (O43174 whole entry): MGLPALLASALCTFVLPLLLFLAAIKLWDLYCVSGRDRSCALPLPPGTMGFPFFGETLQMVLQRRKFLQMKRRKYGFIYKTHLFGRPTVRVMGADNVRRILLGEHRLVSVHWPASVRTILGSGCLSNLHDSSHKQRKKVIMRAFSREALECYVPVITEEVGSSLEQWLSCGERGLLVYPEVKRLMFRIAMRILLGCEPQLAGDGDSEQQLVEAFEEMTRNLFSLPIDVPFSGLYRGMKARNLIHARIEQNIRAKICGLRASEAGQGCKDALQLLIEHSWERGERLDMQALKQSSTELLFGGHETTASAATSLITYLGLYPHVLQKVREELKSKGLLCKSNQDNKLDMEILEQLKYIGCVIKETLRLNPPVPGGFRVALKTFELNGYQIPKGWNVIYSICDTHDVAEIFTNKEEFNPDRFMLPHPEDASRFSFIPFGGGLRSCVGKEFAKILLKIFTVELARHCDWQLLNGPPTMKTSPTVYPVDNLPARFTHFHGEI
Structure (SMILES),IC50 (Cytochrome P450 26B1) [µM],IC50 (Cytochrome P450 26A1) [µM]
Cc1cc2c(cc1S(=O)(=O)Nc1ccc(CC(=O)O)cc1)C(C)(C)CCC2(C)C,> 1000,0.47
Cc1ccc(NS(=O)(=O)c2cc(C)c3c(c2)C(C)(C)CC(C)(C)O3)cc1,21.8,1.9
